No end group written: not given here.
System: A. thaliana seedlings
Assay: Seedling growth inhibition (fresh weight)
Format: in vivo, Arabidopsis thaliana
Settings: mock mean = 1
Protocol: Four-day-old seedlings growing on MS plates were transferred individually into separate wells of transparent 48-well tissue culture plates (Greiner Bio-One) containing 500 μL of liquid MS media with/without elicitor addition. The plates were then transferred back to the growth conditions for an additional 10 days before seedlings were blot-dried and weighed.

## YLPPSKSRKGKGP [SCOOP13]
Col-0, 1 μM, replicate 1
  Seedling fresh weight (Fig3C), relative to mock: 0.6301
Col-0, 1 μM, replicate 2
  Seedling fresh weight (Fig3C), relative to mock: 0.5631
Col-0, 1 μM, replicate 3
  Seedling fresh weight (Fig3C), relative to mock: 0.764
Col-0, 1 μM, replicate 4
  Seedling fresh weight (Fig3C), relative to mock: 0.8644
Col-0, 1 μM, replicate 5
  Seedling fresh weight (Fig3C), relative to mock: 0.9892
Col-0, 1 μM, replicate 6
  Seedling fresh weight (Fig3C), relative to mock: 0.5388
Col-0, 1 μM, replicate 7
  Seedling fresh weight (Fig3C), relative to mock: 0.6544
Col-0, 1 μM, replicate 8
  Seedling fresh weight (Fig3C), relative to mock: 0.7792
Col-0, 1 μM, replicate 9
  Seedling fresh weight (Fig3C), relative to mock: 0.7397
Col-0, 1 μM, replicate 10
  Seedling fresh weight (Fig3C), relative to mock: 0.831
Col-0, 1 μM, replicate 11
  Seedling fresh weight (Fig3C), relative to mock: 0.6483
Col-0, 1 μM, replicate 12
  Seedling fresh weight (Fig3C), relative to mock: 0.7549
Col-0, 10 μM, replicate 1
  Seedling fresh weight (Fig3C), relative to mock: 0.02426
Col-0, 10 μM, replicate 2
  Seedling fresh weight (Fig3C), relative to mock: 0.03639
Col-0, 10 μM, replicate 3
  Seedling fresh weight (Fig3C), relative to mock: 0.03942
Col-0, 10 μM, replicate 4
  Seedling fresh weight (Fig3C), relative to mock: 0.03336
Col-0, 10 μM, replicate 5
  Seedling fresh weight (Fig3C), relative to mock: 0.04246
Col-0, 10 μM, replicate 6
  Seedling fresh weight (Fig3C), relative to mock: 0.03033
Col-0, 10 μM, replicate 7
  Seedling fresh weight (Fig3C), relative to mock: 0.03639
Col-0, 10 μM, replicate 8
  Seedling fresh weight (Fig3C), relative to mock: 0.06975
Col-0, 10 μM, replicate 9
  Seedling fresh weight (Fig3C), relative to mock: 0.07278
Col-0, 10 μM, replicate 10
  Seedling fresh weight (Fig3C), relative to mock: 0.04549
Col-0, 10 μM, replicate 11
  Seedling fresh weight (Fig3C), relative to mock: 0.03942
Col-0, 10 μM, replicate 12
  Seedling fresh weight (Fig3C), relative to mock: 0.04852
mik2-1, 1 μM, replicate 1
  Seedling fresh weight (Fig3C), relative to mock: 0.9552
mik2-1, 1 μM, replicate 2
  Seedling fresh weight (Fig3C), relative to mock: 1.033
mik2-1, 1 μM, replicate 3
  Seedling fresh weight (Fig3C), relative to mock: 0.6626
mik2-1, 1 μM, replicate 4
  Seedling fresh weight (Fig3C), relative to mock: 0.8038
mik2-1, 1 μM, replicate 5
  Seedling fresh weight (Fig3C), relative to mock: 1.026
mik2-1, 1 μM, replicate 6
  Seedling fresh weight (Fig3C), relative to mock: 0.9081
mik2-1, 1 μM, replicate 7
  Seedling fresh weight (Fig3C), relative to mock: 1.002
mik2-1, 1 μM, replicate 8
  Seedling fresh weight (Fig3C), relative to mock: 0.9854
mik2-1, 1 μM, replicate 9
  Seedling fresh weight (Fig3C), relative to mock: 1.022
mik2-1, 1 μM, replicate 10
  Seedling fresh weight (Fig3C), relative to mock: 1.049
mik2-1, 1 μM, replicate 11
  Seedling fresh weight (Fig3C), relative to mock: 1.127
mik2-1, 1 μM, replicate 12
  Seedling fresh weight (Fig3C), relative to mock: 1.002
mik2-1, 10 μM, replicate 1
  Seedling fresh weight (Fig3C), relative to mock: 1.163
mik2-1, 10 μM, replicate 2
  Seedling fresh weight (Fig3C), relative to mock: 0.8385
mik2-1, 10 μM, replicate 3
  Seedling fresh weight (Fig3C), relative to mock: 1.18
mik2-1, 10 μM, replicate 4
  Seedling fresh weight (Fig3C), relative to mock: 1.075
mik2-1, 10 μM, replicate 5
  Seedling fresh weight (Fig3C), relative to mock: 0.8419
mik2-1, 10 μM, replicate 6
  Seedling fresh weight (Fig3C), relative to mock: 0.8825
mik2-1, 10 μM, replicate 7
  Seedling fresh weight (Fig3C), relative to mock: 1.082
mik2-1, 10 μM, replicate 8
  Seedling fresh weight (Fig3C), relative to mock: 0.9738
mik2-1, 10 μM, replicate 9
  Seedling fresh weight (Fig3C), relative to mock: 0.9332
mik2-1, 10 μM, replicate 10
  Seedling fresh weight (Fig3C), relative to mock: 0.9569
mik2-1, 10 μM, replicate 11
  Seedling fresh weight (Fig3C), relative to mock: 0.9941
mik2-1, 10 μM, replicate 12
  Seedling fresh weight (Fig3C), relative to mock: 0.896

## RAGPSKSGQGGGR [SCOOP7]
Col-0, 1 μM, replicate 1
  Seedling fresh weight (Fig3C), relative to mock: 0.0761
Col-0, 1 μM, replicate 2
  Seedling fresh weight (Fig3C), relative to mock: 0.03653
Col-0, 1 μM, replicate 3
  Seedling fresh weight (Fig3C), relative to mock: 0.1644
Col-0, 1 μM, replicate 4
  Seedling fresh weight (Fig3C), relative to mock: 0.1522
Col-0, 1 μM, replicate 5
  Seedling fresh weight (Fig3C), relative to mock: 0.1644
Col-0, 1 μM, replicate 6
  Seedling fresh weight (Fig3C), relative to mock: 0.01826
Col-0, 1 μM, replicate 7
  Seedling fresh weight (Fig3C), relative to mock: 0.0761
Col-0, 1 μM, replicate 8
  Seedling fresh weight (Fig3C), relative to mock: 0.07914
Col-0, 1 μM, replicate 9
  Seedling fresh weight (Fig3C), relative to mock: 0.09436
Col-0, 1 μM, replicate 10
  Seedling fresh weight (Fig3C), relative to mock: 0.08523
Col-0, 1 μM, replicate 11
  Seedling fresh weight (Fig3C), relative to mock: 0.1218
Col-0, 1 μM, replicate 12
  Seedling fresh weight (Fig3C), relative to mock: 0.1035
Col-0, 10 μM, replicate 1
  Seedling fresh weight (Fig3C), relative to mock: 0.009098
Col-0, 10 μM, replicate 2
  Seedling fresh weight (Fig3C), relative to mock: 0.006065
Col-0, 10 μM, replicate 3
  Seedling fresh weight (Fig3C), relative to mock: 0.003033
Col-0, 10 μM, replicate 4
  Seedling fresh weight (Fig3C), relative to mock: 0.009098
Col-0, 10 μM, replicate 5
  Seedling fresh weight (Fig3C), relative to mock: 0.01213
Col-0, 10 μM, replicate 6
  Seedling fresh weight (Fig3C), relative to mock: 0.009098
Col-0, 10 μM, replicate 7
  Seedling fresh weight (Fig3C), relative to mock: 0.01213
Col-0, 10 μM, replicate 8
  Seedling fresh weight (Fig3C), relative to mock: 0.009098
Col-0, 10 μM, replicate 9
  Seedling fresh weight (Fig3C), relative to mock: 0.01213
Col-0, 10 μM, replicate 10
  Seedling fresh weight (Fig3C), relative to mock: 0.009098
Col-0, 10 μM, replicate 11
  Seedling fresh weight (Fig3C), relative to mock: 0.01516
Col-0, 10 μM, replicate 12
  Seedling fresh weight (Fig3C), relative to mock: 0.006065
mik2-1, 1 μM, replicate 1
  Seedling fresh weight (Fig3C), relative to mock: 1.0796
mik2-1, 1 μM, replicate 2
  Seedling fresh weight (Fig3C), relative to mock: 1.12
mik2-1, 1 μM, replicate 3
  Seedling fresh weight (Fig3C), relative to mock: 1.033
mik2-1, 1 μM, replicate 4
  Seedling fresh weight (Fig3C), relative to mock: 0.9787
mik2-1, 1 μM, replicate 5
  Seedling fresh weight (Fig3C), relative to mock: 1.006
mik2-1, 1 μM, replicate 6
  Seedling fresh weight (Fig3C), relative to mock: 0.861
mik2-1, 1 μM, replicate 7
  Seedling fresh weight (Fig3C), relative to mock: 0.9955
mik2-1, 1 μM, replicate 8
  Seedling fresh weight (Fig3C), relative to mock: 0.9652
mik2-1, 1 μM, replicate 9
  Seedling fresh weight (Fig3C), relative to mock: 0.9047
mik2-1, 1 μM, replicate 10
  Seedling fresh weight (Fig3C), relative to mock: 1.0157
mik2-1, 1 μM, replicate 11
  Seedling fresh weight (Fig3C), relative to mock: 1.049
mik2-1, 1 μM, replicate 12
  Seedling fresh weight (Fig3C), relative to mock: 0.9518
mik2-1, 10 μM, replicate 1
  Seedling fresh weight (Fig3C), relative to mock: 1.014
mik2-1, 10 μM, replicate 2
  Seedling fresh weight (Fig3C), relative to mock: 0.9772
mik2-1, 10 μM, replicate 3
  Seedling fresh weight (Fig3C), relative to mock: 0.9332
mik2-1, 10 μM, replicate 4
  Seedling fresh weight (Fig3C), relative to mock: 0.9062
mik2-1, 10 μM, replicate 5
  Seedling fresh weight (Fig3C), relative to mock: 1.001
mik2-1, 10 μM, replicate 6
  Seedling fresh weight (Fig3C), relative to mock: 0.94
mik2-1, 10 μM, replicate 7
  Seedling fresh weight (Fig3C), relative to mock: 1.035
mik2-1, 10 μM, replicate 8
  Seedling fresh weight (Fig3C), relative to mock: 1.085
mik2-1, 10 μM, replicate 9
  Seedling fresh weight (Fig3C), relative to mock: 1.062
mik2-1, 10 μM, replicate 10
  Seedling fresh weight (Fig3C), relative to mock: 0.9197
mik2-1, 10 μM, replicate 11
  Seedling fresh weight (Fig3C), relative to mock: 0.9569
mik2-1, 10 μM, replicate 12
  Seedling fresh weight (Fig3C), relative to mock: 0.9028

Reference: article PMC7846792, “Perception of a divergent family of phytocytokines by the Arabidopsis receptor kinase MIK2” (Nature Communications, 2021)
